Laboratory results taken from the NIST ThermoML archive (doi:10.1016/j.fluid.2007.01.001).

Test: xn = mol fraction of the nth substance listed
Conditions: 101 kPa, Liquid; for viscosity: Capillary tube (Ostwald / Ubbelohde) method; for speed of sound: Frequency=2 MHz, Linear variable-path acoustic interferometer; for mass density: Pycnometric method

CCCCC(C)O (stereo not given) [2-hexanol] + Cc1ccccc1
Conditions	mass density, 298.15 K [kg/m3]	mass density, 308.15 K [kg/m3]	speed of sound, 298.15 K [m/s]	speed of sound, 308.15 K [m/s]	viscosity, 298.15 K [mPa·s]	viscosity, 308.15 K [mPa·s]
x2 = 0	810.84	801.75	1290	1255	4.105	2.92
x2 = 0.0497	812.91	803.69	1286	1251	3.548	2.566
x2 = 0.1007	815.08	805.85	1284	1245	3.087	2.273
x2 = 0.1588	817.53	808.16	1281	1243	2.741	1.935
x2 = 0.1993	819.29	809.89	1278	1240	2.427	1.703
x2 = 0.252	821.5	812.03	1274	1237	2.11	1.519
x2 = 0.2999	823.59	813.99	1270	1235	1.849	1.303
x2 = 0.3495	825.77	816.07	1269	1232	1.619	1.153
x2 = 0.4016	828.16	818.34	1267	1230	1.439	1.046
x2 = 0.4468	830.21	820.35	1265	1229	1.318	0.962
x2 = 0.5012	832.7	822.9	1265	1228	1.165	0.85
x2 = 0.5502	835.1	825.27	1264	1228	1.061	0.794
x2 = 0.6003	837.61	827.79	1263	1228	0.953	0.766
x2 = 0.6492	840.23	830.36	1267	1229	0.92	0.689
x2 = 0.7008	843.05	833.28	1268	1230	0.866	0.671
x2 = 0.7476	845.75	835.92	1271	1232	0.84	0.611
x2 = 0.8006	848.93	839.1	1276	1237	0.762	0.579
x2 = 0.8502	852.09	842.25	1280	1242	0.686	0.561
x2 = 0.8945	855.01	845.2	1286	1249	0.649	0.531
x2 = 0.9407	858.09	848.38	1294	1257	0.638	0.527
